Measured values taken from US10806746B2, “Di- and tri-cationic glycosylated antitumor ether lipids, L-gucosylated gaels and rhamnose-linked gaels as cytotoxic agents against epithelial cancer cells and cancer stem cells” (The University of Manitoba, priority 2014, dated 2020).
Read-outs that look alike come from different tables or passages of the source.

How the values were obtained:
Format in all cases: cell-based, human
[1] = test system: MDA-MB-231 cells; experiment: MTS viability assay, MDA-MB-231 breast cancer cells
Protocol: (§1) FIG. 2A. Effects of compounds 1-11 on the viability of MDA-MB231 cells. MDA-MB-231 cells were cultured in DMEM medium supplemented with 10% FBS. Equal numbers were dispersed into 96-well plates. After 24 h, the cells were incubated with compounds 1-11 (0-30 μM) for 48 h. At the end of the incubation, MTS reagent (20% vol/vol) was added and the plates were incubated for 1-4 h. The OD490 was read with a plate reader. Wells with media but no cells were treated in similar fashion and the values utilized as blank. The results represent the mean±standard deviation of 6 independent determinations.
as §1, with “2K.” for “2A.”, “1, 69-72” for “1-11”, “MDA-MB-231” for “MDA-MB231”, “1, 69-72” for “1-11 (0-30 μM)”
(§2) The cell lines were cultured from frozen stocks originally obtained from ATCC. MDA-MB-231, JIMT-1, DU145, U81, U251 cells were grown in DMEM medium. BT474, A2780s, A2780cp cells were grown in DMEM/F12 medium supplemented with 10% FBS. MiaPaCa2 was cultured in DMEM supplemented with 10% FBS and 2.5% horse serum. PC3 cells were cultured in F12K medium supplemented with 10% FBS. All the media were supplemented with penicillin/streptomycin.
(§3) The effects of the GAELs on the viability of the various epithelial cancer cell lines was determined as previously described. Briefly, equal numbers of the cells were dispersed into 96-well plates. After 24 h, the cells were incubated with the compounds (0-30 μM) for 48 h. At the end of the incubation, MTS reagent (20% vol/vol) was added and the plates were incubated for 1-4 h. The OD490 was read with a plate reader. Wells with media but no cells were treated in similar fashion and the values utilized as blank. The results represent the mean±standard deviation of 6 independent determinations.

[2] = test system: BT-474, JIMT-1, MDA-MB-231 (breast), DU145, PC3 (prostate), MiaPaCa2 (pancreas); experiment: MTS viability, panel of epithelial cancer cell lines (ranges over the cell lines); conditions: for CC50: read-out: CC50 values, range depending on the cell line
Protocol: To determine the effect of compounds 1-10 on the viability of the epithelial cancer cell lines, exponentially growing cells, BT-474, JIMT-1, MDA-MB-231 (breast), DU145, PC3 (prostate), MiaPaCa2 (pancreas) were incubated with varying concentrations of 1-8 (0-30 μM) for 48 h followed by viability assays with the MTS reagent.
as §3

[3] = test system: DU145 cells; experiment: MTS viability assay, DU145 prostate cancer cells
Protocol: as §1, with “2D.” for “2A.”, “DU145” for “MDA-MB231”, “DU145” for “MDA-MB-231”
as §1, with “2H. Effect” for “2A. Effects”, “1, 69-72” for “1-11”, “DU145” for “MDA-MB231”, “DU145” for “MDA-MB-231”, “1, 69-72” for “1-11 (0-30 μM)”
as §2, §3

[4] = test system: MiaPaCa2 cells; experiment: MTS viability assay, MiaPaCa2 pancreas cancer cells
Protocol: as §1, with “2F.” for “2A.”, “MiaPaCa2” for “MDA-MB231”, “MiaPaCa2” for “MDA-MB-231”, “FBS and 2.5% horse serum.” for “FBS.”
as §1, with “2I.” for “2A.”, “1, 69-72” for “1-11”, “MiaPaCa2” for “MDA-MB231”, “MiaPaCa2” for “MDA-MB-231”, “FBS and 2.5% horse serum.” for “FBS.”, “1, 69-72” for “1-11 (0-30 μM)”
as §2, §3

[5] = Table 1A, 48 h, read-out: CC50 values MD 231
[6] = Table 1B, 48 h, read-out: CC90 values MD 231
[7] = range over the cell lines tested, 48 h
[8] = Table 1A, 48 h, read-out: CC50 values DU 145
[9] = Table 1B, 48 h, read-out: CC90 values DU 145
[10] = Table 1A, 48 h, read-out: CC50 values MiaPaCa2
[11] = Table 1B, 48 h, read-out: CC90 values MiaPaCa2
[12] = Homo sapiens, MDA-MB-231, Table 5, 48 h, read-out: CC50 MDA-MB-231
[13] = Homo sapiens, MDA-MB-231, Table 5, 48 h, read-out: CC90 MDA-MB-231
[14] = Homo sapiens, range over the cell lines tested, 48 h
[15] = Homo sapiens, DU-145, Table 5, 48 h, read-out: CC50 DU-145
[16] = Homo sapiens, DU-145, Table 5, 48 h, read-out: CC90 DU-145
[17] = Homo sapiens, MIA PaCa-2, Table 5, 48 h, read-out: CC50 Mlapaca2
[18] = Homo sapiens, MIA PaCa-2, Table 5, 48 h, read-out: CC90 Mlapaca2

SMILES | CC50 [1, 5] | CC90 [1, 6] | CC50 [2, 7] | CC50 [3, 8] | CC90 [3, 9] | CC50 [4, 10] | CC90 [4, 11] | CC50 [1, 12] | CC90 [1, 13] | CC50 [2, 14] | CC50 [3, 15] | CC90 [3, 16] | CC50 [4, 17] | CC90 [4, 18] | other results
CCCCCCCCCCCCCCCCOC[C@@H](CN=[N+]=[N-])O[C@@H]1O[C@H](CO)[C@@H](O)[C@H](O)[C@H]1N [Compound 6, 1-O-Hexadecyloxy-2R-(2′-amino-2′-deoxy-β-D-glucopyranosyl)-3-azido glycerol] | 11 µM | 15 µM | 6 to 22 µM | 12.5 µM | 18 µM | 11.5 µM | 18.5 µM | – | – | – | – | – | – | – | –
CCCCCCCCCCCCCCCCOC[C@H](COC1O[C@H](CNCCCCCCCCCCCCN)[C@@H](O)[C@H](O)[C@H]1N)OC (some centres unmarked) [Compound 73, 1-O-Hexadecyl-2-O-methyl-3-O-[6′-N-(12-aminododecyl)-2′,6′-diamino-2′,6′-dideoxy-glucopyranoside]-sn-glycerol] | – | – | 1.5 to 4 µM | – | – | – | – | – | – | – | – | – | – | – | CC50 ([1]; Table 6, 48 h, read-out: MB-MDA-231 CC50): 1.5 µM; CC90 ([1]; Table 6, 48 h, read-out: MB-MDA-231 CC90): 3.8 µM; cytotoxicity against all cell lines examined ([2]; tricationic GAELs, FIG. 2O, Table 6): cytotoxic; CC50 ([3]; Table 6, 48 h, read-out: DU145 CC50): 3.8 µM; CC90 ([3]; Table 6, 48 h, read-out: DU145 CC90): 4.8 µM; CC50 ([4]; Table 6, 48 h, read-out: MiaPaCa2 CC50): 4 µM; CC90 ([4]; Table 6, 48 h, read-out: MiaPaCa2 CC90): 6.6 µM
CCCCCCCCCCCCCCCCOCC(CO[C@@H]1O[C@H](CN)[C@@H](O)[C@H](O)[C@H]1N)O[C@@H]1O[C@H](CN)[C@@H](O)[C@H](O)[C@H]1N (stereo partly drawn) [Compound 5, 1-O-Hexadecyloxy-2S/R, 3-di(-2′,6′-diamino-2′, 6′-dideoxy-β-D-glucopyranosyl)-glycerol] | > 30 µM | > 30 µM | > 30 µM | > 30 µM | > 30 µM | > 30 µM | > 30 µM | – | – | – | – | – | – | – | –
CCCCCCCCCCCCCCCCOC[C@H](CO[C@H]1O[C@H](CN)[C@@H](O)[C@H](O)[C@H]1N)OC [Compound 1, 1-O-Hexadecyl-2-O-methyl-3-O-(2′,6′-diamino-2′,6′-dideoxy-α-D-glucopyranosyl)-sn-glycerol] | – | – | – | – | – | – | – | 3 µM | 4.5 µM | 3 to 7.5 µM | 5.2 µM | 7.4 µM | 3.5 µM | 6.5 µM | CC50 ([1]; Homo sapiens, MDA-MB-231, Table 1A, 48 h, read-out: CC50 values MD 231): 3 µM; CC90 ([1]; Homo sapiens, MDA-MB-231, Table 1B, 48 h, read-out: CC90 values MD 231): 4.5 µM; CC90 ([2]; Homo sapiens, range over the cell lines tested, 48 h, read-out: CC90 (90% loss of cell viability), range depending on cell lines): 4.5 to 9.5 µM; CC50 ([3]; Homo sapiens, DU-145, Table 1A, 48 h, read-out: CC50 values DU 145): 5.2 µM; CC90 ([3]; Homo sapiens, DU-145, Table 1B, 48 h, read-out: CC90 values DU 145): 7.4 µM; CC50 ([4]; Homo sapiens, MIA PaCa-2, Table 1A, 48 h, read-out: CC50 values MiaPaCa2): 3.5 µM; CC90 ([4]; Homo sapiens, MIA PaCa-2, Table 1B, 48 h, read-out: CC90 values MiaPaCa2): 6.5 µM
CCCCCCCCCCCCCCCCOCCCO[C@@H]1O[C@H](CN)[C@@H](O)[C@H](O)[C@H]1N [Compound 4, 1-O-Hexadecyl-2-deoxy-3-O-(2′6′-diamino-2′,6′-dideoxy-β-D-glucopyranosyl)-sn-glycerol] | 4.5 µM | 7 µM | 4 to 8.5 µM | 6 µM | 8.5 µM | 6.5 µM | 13 µM | – | – | – | – | – | – | – | –
CCCCCCCCCCCCCCCCOCC(CO[C@@H]1OC(CO)[C@H](O)[C@H](O)C1N)OC (some centres unmarked) [Compound 69] | – | – | – | – | – | – | – | 11 µM | 17 µM | 6.5 to 12.5 µM | 12.5 µM | 16 µM | 7.5 µM | 18 µM | CC50 ([1]; Homo sapiens, MDA-MB-231, Table 2A, 48 h, read-out: CC50 values MDA-MB-231): 11 µM; CC90 ([1]; Homo sapiens, MDA-MB-231, Table 2B, 48 h, read-out: CC90 values MDA-MB-231): 17 µM; CC50 ([3]; Homo sapiens, DU-145, Table 2A, 48 h, read-out: CC50 values DU 145): 12.5 µM; CC90 ([3]; Homo sapiens, DU-145, Table 2B, 48 h, read-out: CC90 values DU 145): 16 µM; CC50 ([4]; Homo sapiens, MIA PaCa-2, Table 2A, 48 h, read-out: CC50 values MiaPaCa2): 7.5 µM; CC90 ([4]; Homo sapiens, MIA PaCa-2, Table 2B, 48 h, read-out: CC90 values MiaPaCa2): 18 µM
